In patent publication US20230312587A1, “PTERIDINONE COMPOUNDS AND USES THEREOF” (Vertex Pharmaceutical Incorporated, priority 2018, published 2023):

What follows are compounds tested on β-catenin-TCF-mediated reporter transcription activity in Colo 205 cells (assay: Colo 205 reporter assay (TCF/LEF luciferase)). Conditions: Homo sapiens, COLO 205, 5 h, Colo 205 TCF/LEF luciferase reporter, five hours after addition of compound; read-out: TCF reporter Colo205 IC50.
Type: cell-based
Method in brief: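 Luciferase signal from a TCF/LEF-driven reporter, stably integrated in Colo 205 colon cancer cells, was measured 5 h after compound addition.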

IC50 | SMILES
< 0.3 µM | Cc1nc(NCc2cnn(-c3ccc(C(F)(F)F)nc3)c2)nc2c1NC(=O)[C@H](C)N2C [Compound 468, (S)-4,7,8-trimethyl-2-(((1-(6-(trifluoromethyl)pyridin-3-yl)-1H-pyrazol-4-yl)methyl)amino)-7,8-dihydropteridin-6(5H)-one]
0.3 to 1 µM | Cc1nc(NC2CN(C(=O)c3ccc(OCC(F)(F)F)nc3)C2)nc2c1NC(=O)[C@H](C(C)C)N2C [Compound 615, (S)-7-isopropyl-4,8-dimethyl-2-((1-(6-(2,2,2-trifluoroethoxy)nicotinoyl)azetidin-3-yl)amino)-7,8-dihydropteridin-6(5H)-one]
< 0.3 µM | C=C(C)c1ccc(Cn2cc(CNc3nc(C)c4c(n3)N(C)[C@@H](C(C)C)C(=O)N4)cn2)cn1 [Compound 480, (S)-7-isopropyl-4,8-dimethyl-2-(((1-((6-(prop-1-en-2-yl)pyridin-3-yl)methyl)-1H-pyrazol-4-yl)methyl)amino)-7,8-dihydropteridin-6(5H)-one]
< 0.3 µM | Cc1nc(NCc2cnn(Cc3ccccc3C(F)(F)F)c2)nc2c1NC(=O)[C@H](C)N2C [Compound 68, (7S)-4,7,8-trimethyl-2-(((1-(2-(trifluoromethyl)benzyl)-1H-pyrazol-4-yl)methyl)amino)-7,8-dihydropteridin-6(5H)-one]
1 to 5 µM | C=C1C(=O)Nc2c(C)nc(NCc3cnn(Cc4ccc(C(F)(F)F)nc4)c3)nc2N1C [Compound 749, 4,8-dimethyl-7-methylene-2-(((1-((6-(trifluoromethyl)pyridin-3-yl)methyl)-1H-pyrazol-4-yl)methyl)amino)-7,8-dihydropteridin-6(5H)-one]
0.3 to 1 µM | COc1ccc(Cn2cc(CNc3ncc4c(n3)N(C)[C@@H](C)C(=O)N4)cn2)cc1F [Compound 148, (7S)-2-(((1-(3-fluoro-4-methoxybenzyl)-1H-pyrazol-4-yl)methyl)amino)-7,8-dimethyl-7,8-dihydropteridin-6(5H)-one]
≥ 5 µM | Cc1nc(NCc2ncn(Cc3cc(F)c(F)c(F)c3)n2)nc2c1NC(=O)[C@H](C(C)C)N2C [Compound 490, (S)-7-isopropyl-4,8-dimethyl-2-(((1-(3,4,5-trifluorobenzyl)-1H-1,2,4-triazol-3-yl)methyl)amino)-7,8-dihydropteridin-6(5H)-one]
< 0.3 µM | Cc1nc(NC2CN(C(=O)c3ccc(OC(F)(F)F)nc3)C2)nc2c1NC(=O)[C@H](C(C)C)N2C [Compound 607, (S)-7-isopropyl-4,8-dimethyl-2-((1-(6-(trifluoromethoxy)nicotinoyl)azetidin-3-yl)amino)-7,8-dihydropteridin-6(5H)-one]
< 0.3 µM | Cc1nc(NCc2cnn(C3CCN(c4cc(F)cc(F)c4)CC3)c2)nc2c1NC(=O)[C@H](C)N2C [Compound 179, (7S)-2-(((1-(1-(3,5-difluorophenyl)piperidin-4-yl)-1H-pyrazol-4-yl)methyl)amino)-4,7,8-trimethyl-7,8-dihydropteridin-6(5H)-one]
< 0.3 µM | COc1c(F)cc(Cn2cc(CNc3nc(C)c4c(n3)N(C)[C@@H](C(C)C)C(=O)N4)nn2)cc1F [Compound 451, (S)-2-(((1-(3,5-difluoro-4-methoxybenzyl)-1H-1,2,3-triazol-4-yl)methyl)amino)-7-isopropyl-4,8-dimethyl-7,8-dihydropteridin-6(5H)-one]
< 0.3 µM | Cc1nc(NCc2cnn(Cc3cc(F)c(F)cc3F)c2)nc2c1N(C)C(=O)[C@H](C)N2C [Compound 16, (7S)-4,5,7,8-tetramethyl-2-(((1-(2,4,5-trifluorobenzyl)-1H-pyrazol-4-yl)methyl)amino)-7,8-dihydropteridin-6(5H)-one]
< 0.3 µM | Cc1nc(N[C@H]2C[C@@H](CNc3cnc(C(F)(F)F)cn3)C2)nc2c1NC(=O)[C@H](C)N2C [Compound 714, (S)-4,7,8-trimethyl-2-((cis-3-(((5-(trifluoromethyl)pyrazin-2-yl)amino)methyl)cyclobutyl)amino)-7,8-dihydropteridin-6(5H)-one]
< 0.3 µM | COCC1(C)C(=O)Nc2c(C)nc(NCc3cnn(Cc4cc(C(F)(F)F)nn4C)c3)nc2N1C (stereo not shown) [Compound 704, 7-(methoxymethyl)-4,7,8-trimethyl-2-(((1-((1-methyl-3-(trifluoromethyl)-1H-pyrazol-5-yl)methyl)-1H-pyrazol-4-yl)methyl)amino)-7,8-dihydropteridin-6(5H)-one]
< 0.3 µM | Cc1nc(NCc2cnn([C@H]3C[C@H]3c3ccc(F)cc3)c2)nc2c1N(C)C(=O)[C@H](C)N2C [Compound 153, (7S)-2-(((1-((1S,2S)-2-(4-fluorophenyl)cyclopropyl)-1H-pyrazol-4-yl)methyl)amino)-4,5,7,8-tetramethyl-7,8-dihydropteridin-6(5H)-one]
0.3 to 1 µM | Cc1nc(NCc2cnn(Cc3ccnc(N(C)C)c3)c2)nc2c1NC(=O)[C@H](C)N2C [Compound 12, (7S)-2-(((1-((2-(dimethylamino)pyridin-4-yl)methyl)-1H-pyrazol-4-yl)methyl)amino)-4,7,8-trimethyl-7,8-dihydropteridin-6(5H)-one]
< 0.3 µM | Cc1nc(NCc2cnn(Cc3ccc(F)c(F)c3)c2)nc2c1N(C)C(=O)[C@H](C)N2C [Compound 28, (7S)-2-(((1-(3,4-difluorobenzyl)-1H-pyrazol-4-yl)methyl)amino)-4,5,7,8-tetramethyl-7,8-dihydropteridin-6(5H)-one]

Second part, the compound before the results:

SMILES | IC50
Cc1nc(N[C@H]2C[C@H](NC(=O)c3cc(F)c(F)c(F)c3)C2)nc2c1NC(=O)[C@H](C)N2C [Compound 476, 3,4,5-trifluoro-N-(trans-3-(((S)-4,7,8-trimethyl-6-oxo-5,6,7,8-tetrahydropteridin-2-yl)amino)cyclobutyl)benzamide] | 1 to 5 µM
Cc1nc(N[C@H]2C[C@@H](COc3ccc(F)c(F)c3)C2)nc2c1NC(=O)[C@H](C)N2C [Compound 271, (7S)-2-((cis-3-((3,4-difluorophenoxy)methyl)cyclobutyl)amino)-4,7,8-trimethyl-7,8-dihydropteridin-6(5H)-one] | < 0.3 µM
Cc1nc(N[C@H]2C[C@H](NC(=O)Cc3cc(F)c(F)c(F)c3)C2)nc2c1NC(=O)[C@H](C(C)C)N2C [Compound 515, N-(trans-3-(((S)-7-isopropyl-4,8-dimethyl-6-oxo-5,6,7,8-tetrahydropteridin-2-yl)amino)cyclobutyl)-2-(3,4,5-trifluorophenyl)acetamide] | < 0.3 µM
Cc1nc(N[C@H]2C[C@@H](NC(=O)Nc3ccc(F)c(F)c3F)C2)nc2c1NC(=O)[C@H](C)N2C [Compound 460, 1-(2,3,4-trifluorophenyl)-3-(cis-3-(((S)-4,7,8-trimethyl-6-oxo-5,6,7,8-tetrahydropteridin-2-yl)amino)cyclobutyl)urea] | < 0.3 µM
Cc1nc(NC2CN(C(=O)C3CCC(C)O3)C2)nc2c1NC(=O)[C@H](C(C)C)N2C (stereo partly drawn) [Compound 637, (7S)-7-isopropyl-4,8-dimethyl-2-((1-(5-methyltetrahydrofuran-2-carbonyl)azetidin-3-yl)amino)-7,8-dihydropteridin-6(5H)-one] | ≥ 5 µM
COC1(C2C(=O)Nc3c(C)nc(N[C@H]4C[C@H](Oc5cc(F)c(F)c(F)c5)C4)nc3N2C)CCC1 (relative stereo) [Compound 667, 7-(1-methoxycyclobutyl)-4,8-dimethyl-2-((trans-3-(3,4,5-trifluorophenoxy)cyclobutyl)amino)-7,8-dihydropteridin-6(5H)-one] | < 0.3 µM
Cc1nc(N[C@H]2C[C@H](NC(=O)Nc3ccc(F)c(F)c3F)C2)nc2c1NC(=O)[C@H](C)N2C [Compound 461, 1-(2,3,4-trifluorophenyl)-3-(trans-3-(((S)-4,7,8-trimethyl-6-oxo-5,6,7,8-tetrahydropteridin-2-yl)amino)cyclobutyl)urea] | 1 to 5 µM
Cc1nc(N[C@H]2C[C@@H](Cn3nc(C4CC4)cc3C(F)(F)F)C2)nc2c1NC(=O)[C@H](C(C)C)N2C [Compound 581, (S)-2-((cis-3-((3-cyclopropyl-5-(trifluoromethyl)-1H-pyrazol-1-yl)methyl)cyclobutyl)amino)-7-isopropyl-4,8-dimethyl-7,8-dihydropteridin-6(5H)-one] | < 0.3 µM
COC1(C2C(=O)Nc3c(C)nc(NC4CN(C(=O)c5cc(F)c(F)c(F)c5)C4)nc3N2C)CCC1 (stereo not shown) [Compound 675, 7-(1-methoxycyclobutyl)-4,8-dimethyl-2-((1-(3,4,5-trifluorobenzoyl)azetidin-3-yl)amino)-7,8-dihydropteridin-6(5H)-one] | 0.3 to 1 µM
COC1(C2C(=O)Nc3c(C)nc(N[C@H]4C[C@H](Oc5cnc(C(F)(F)F)nc5)C4)nc3N2C)CCC1 (relative stereo) [Compound 718, 7-(1-methoxycyclobutyl)-4,8-dimethyl-2-((trans-3-((2-(trifluoromethyl)pyrimidin-5-yl)oxy)cyclobutyl)amino)-7,8-dihydropteridin-6(5H)-one] | < 0.3 µM
Cc1nc(N[C@H]2C[C@H](OCc3cc(F)c(F)c(F)c3)C2)nc2c1N(C)C(=O)[C@H](C)N2C [Compound 255, (7S)-4,5,7,8-tetramethyl-2-((trans-3-((3,4,5-trifluorobenzyl)oxy)cyclobutyl)amino)-7,8-dihydropteridin-6(5H)-one] | < 0.3 µM
Cc1nc(N[C@H]2C[C@H](Oc3cncc(F)c3)C2)nc2c1NC(=O)[C@H](C)N2C [Compound 262, (7S)-2-((trans-3-((5-fluoropyridin-3-yl)oxy)cyclobutyl)amino)-4,7,8-trimethyl-7,8-dihydropteridin-6(5H)-one] | 1 to 5 µM
CO[C@H](C)[C@H]1C(=O)Nc2c(C)nc(NC3CN(C(=O)c4cc(F)c(F)c(F)c4)C3)nc2N1C [Compound 568, (S)-7-((R)-1-methoxyethyl)-4,8-dimethyl-2-((1-(3,4,5-trifluorobenzoyl)azetidin-3-yl)amino)-7,8-dihydropteridin-6(5H)-one] | < 0.3 µM

Same assay, conditions: Homo sapiens, COLO 205, 5 h, R-isomer at C2 (corresponding to C2 S-isomer); Colo 205 TCF/LEF luciferase reporter, 5 h; read-out: TCF reporter Colo205 IC50

IC50 | SMILES
0.3 to 1 µM | CC[C@@H]1C(=O)N(C)c2cnc(NCc3cnn(Cc4ccc(F)cc4)c3)nc2N1C(C)C [Compound I-1146]
1 to 5 µM | COCC[C@@H]1C(=O)Nc2c(C)nc(NCc3cnn(Cc4ccc(C(F)(F)F)nc4)c3)nc2N1C [Compound I-1647]
